Among the data in patent US20240148821A1, “PHARMACEUTICAL USE OF CYCLIC PEPTIDE COMPOUND” (CHUGAI SEIYAKU KABUSHIKI KAISHA, priority 2021, published 2024) are IC50 values, retold here.

As a reminder, the IC50 is the concentration needed to halve the response being measured.

The structures appear in SMILES notation. Numbered stars: 1 amine (or outer) side, 2 acyl side, 3 side chain; on linkers, the order of the positions; unused ones are H or OH. Bridge positions count the residues as written; N and C are the ends. Square brackets hold non-standard residues; d marks the D form. Peptide text beside a SMILES is read from it. * marks the point of attachment. hPhe(3,5-F2-4-CF3) = N[C@@H](CCc1cc(F)c(C(F)(F)F)c(F)c1)C(=O)O; hPhe(3-Cl-4-CF3) = N[C@@H](CCc1ccc(C(F)(F)F)c(Cl)c1)C(=O)O; hPhe(3-F,4-CF3) = N[C@@H](CCc1ccc(C(F)(F)F)c(F)c1)C(=O)O; hPhe(4-CF3) = N[C@@H](CCc1ccc(C(F)(F)F)cc1)C(=O)O; NMePhe(4-Cl) = CN[C@@H](Cc1ccc(Cl)cc1)C(=O)O; NMePhe(4-Me) = CN[C@@H](Cc1ccc(C)cc1)C(=O)O; NMeNle(6-CHF2) = CN[C@@H](CCCCC(F)F)C(=O)O; NMedβ3hAla = C[C@H](CC(=O)[*:2])N(C)[*:1]; NMeGly(cPent) = CN[C@H](C(=O)O)C1CCCC1; Phe(3-I) = N[C@@H](Cc1cccc(I)c1)C(=O)O; NMeCha = CN[C@@H](CC1CCCCC1)C(=O)O; Hyp = O=C(O)[C@@H]1C[C@@H](O)CN1; NMeChg = CN[C@H](C(=O)O)C1CCCCC1; NMeF = CN[C@@H](Cc1ccccc1)C(=O)O; NMeI = CC[C@H](C)[C@H](NC)C(=O)O; NMeD = CN[C@@H](CC(=O)O)C(=O)O; CH2CONHtBu = CC(C)(C)NC(=O)C*; NMeL = CN[C@@H](CC(C)C)C(=O)O; NMeV = CN[C@H](C(=O)O)C(C)C; d(β3hA) = C[C@@H](N)CC(=O)O; NMeS = CN[C@@H](CO)C(=O)O; NMeA = CN[C@@H](C)C(=O)O; Piperidide = C1CCN(*)CC1; Pyrrolidide = C1CCN(*)C1; Ac5c = NC1(C(=O)O)CCCC1; Aze = O=C(O)[C@@H]1CCN1; Sar = CNCC(=O)O

The assay has as its target protein-protein interaction between Kras and SOS1 (biotin-tagged human Kras loaded with GDP, His-tagged human SOS1) (Homo sapiens (Human), UniProt P01116, G12D). The assay can be described thus: Protein-protein interaction inhibition between Kras and SOS1 (KrasG12D-SOS PPI) using AlphaScreen.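 Note: kras produced in E. coli, Ni-coupled donor beads and streptavidin acceptor beads, excitation 680 nm with emission detected at 520–620 nm via singlet oxygen transfer.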 The format is biochemical. The settings on record: AlphaScreen; biotin-tagged human Kras loaded with GDP, His-tagged human SOS1; read-out: KRAS G12D-SOS PPI IC50. A general note: Alpha assays give light when donor and acceptor beads are brought close together.
`CC[C@H](C)[C@@H]1NC(=O)[C@H](CC(C)C)N(C)C(=O)C[C@@H](C(=O)N2CCCC2)N(C)C(=O)[C@H]([C@@H](C)CC)N(C)C(=O)C2(CCCC2)NC(=O)[C@@H]2CCCN2C(=O)[C@H](CCc2ccc(C(F)(F)F)c(F)c2)NC(=O)CN(C)C(=O)[C@H](Cc2ccc(C)cc2)N(C)C(=O)[C@@H]2CCN2C(=O)[C@H](C)N(C)C1=O` [Compound 44] ([NMeL]I[NMeA][Aze][NMePhe(4-Me)][Sar][hPhe(3-F,4-CF3)]P[Ac5c][NMeI][NMeD]-Pyrrolidide; lactam N-11): the IC50 was 0.0011 µM.
The same measure for `CC[C@H](C)[C@@H]1NC(=O)[C@H](CC(C)C)N(C)C(=O)C[C@@H](C)N(C)C(=O)[C@H](C2CCCC2)N(C)C(=O)C2(CCCC2)NC(=O)[C@@H]2CCCN2C(=O)[C@H](CCc2ccc(C(F)(F)F)c(F)c2)NC(=O)CN(C)C(=O)[C@H](CC2CCCCC2)N(C)C(=O)[C@@H]2CCN2C(=O)[C@H](C)N(C)C1=O` [Compound 49] (cyclo([Ac5c][NMeGly(cPent)][NMedβ3hAla][NMeL]I[NMeA][Aze][NMeCha][Sar][hPhe(3-F,4-CF3)]P)): 0.012 µM.
The same measure for `CC[C@H](C)[C@@H]1NC(=O)[C@H](C)N(C)C(=O)C[C@@H](C)NC(=O)[C@H](C(C)C)N(C)C(=O)[C@H](Cc2ccccc2)N(C)C(=O)[C@H](CC(C)C)N(C)C(=O)[C@H](CCc2ccc(C(F)(F)F)cc2)NC(=O)CN(C)C(=O)[C@H](Cc2ccc(Cl)cc2)N(C)C(=O)CN(C)C(=O)CN(C)C1=O` [Compound 51] (cyclo(I[Sar][Sar][NMePhe(4-Cl)][Sar][hPhe(4-CF3)][NMeL][NMeF][NMeV][d(β3hA)][NMeA])): 0.09 µM; for `CC[C@H](C)[C@@H]1NC(=O)[C@H](C2CCCCC2)N(C)C(=O)C[C@@H](C(=O)N2CCCCC2)N(C)C(=O)[C@H](C(C)C)N(C)C(=O)C2(CCCC2)NC(=O)[C@@H]2CCCN2C(=O)[C@H](CCc2ccc(C(F)(F)F)c(Cl)c2)NC(=O)CN(C)C(=O)[C@H](CC2CCCCC2)N(C)C(=O)[C@@H]2CCN2C(=O)[C@H](C)N(C)C1=O` [Compound 58] ([NMeChg]I[NMeA][Aze][NMeCha][Sar][hPhe(3-Cl-4-CF3)]P[Ac5c][NMeV][NMeD]-Piperidide; lactam N-11): 0.028 µM; for `CC[C@H](C)[C@@H]1NC(=O)[C@H](C)N(C)C(=O)C[C@@H](C)NC(=O)[C@H](CC(C)C)N(C)C(=O)[C@H](Cc2ccccc2)N(C)C(=O)[C@H](CC(C)C)NC(=O)[C@H](Cc2cccc(I)c2)NC(=O)CN(C)C(=O)[C@H](Cc2ccc(Cl)cc2)N(C)C(=O)CN(C)C(=O)CN(C)C1=O` [Compound 65] (cyclo(I[Sar][Sar][NMePhe(4-Cl)][Sar][Phe(3-I)]L[NMeF][NMeL][d(β3hA)][NMeA])): 0.24 µM.
Consider `CC[C@H](C)[C@@H]1NC(=O)[C@H](CC(C)C)N(C)C(=O)C[C@@H](C)NC(=O)[C@H](C(C)C)N(C)C(=O)C2(CCCC2)NC(=O)[C@@H]2CCCN2C(=O)[C@H](CCc2ccc(C(F)(F)F)c(Cl)c2)NC(=O)CN(C)C(=O)[C@H](CC2CCCCC2)N(C)C(=O)[C@@H]2CCN2C(=O)[C@H](COCC(=O)NC(C)(C)C)N(C)C1=O` [Compound 70] (cyclo([Ac5c][NMeV][d(β3hA)][NMeL]I[NMeS](CH2CONHtBu)[Aze][NMeCha][Sar][hPhe(3-Cl-4-CF3)]P)), for which the half-inhibitory concentration (IC50) came out at 0.16 µM.
With `CCO[C@@H]1C[C@H]2C(=O)NC3(CCCC3)C(=O)N(C)[C@@H](C3CCCC3)C(=O)N(C)[C@H](C)CC(=O)N(C)[C@@H](CC(C)C)C(=O)N[C@@H]([C@@H](C)CC)C(=O)N(C)CC(=O)N(C)CC(=O)N(C)[C@@H](CC3CCCCC3)C(=O)N(C)CC(=O)N[C@@H](CCc3cc(F)c(C(F)(F)F)c(F)c3)C(=O)N2C1` [Compound 74] (cyclo([Ac5c][NMeGly(cPent)][NMedβ3hAla][NMeL]I[Sar][Sar][NMeCha][Sar][hPhe(3,5-F2-4-CF3)][Hyp](Et))), the IC50 is 0.0072 µM.
Then `CC[C@H](C)[C@@H]1NC(=O)[C@H](CC(C)C)N(C)C(=O)C[C@@H](C(=O)N2CCCCC2)N(C)C(=O)[C@H](C(C)C)N(C)C(=O)C2(CCCC2)NC(=O)[C@@H]2CCCN2C(=O)[C@H](CCc2ccc(C(F)(F)F)c(Cl)c2)NC(=O)CN(C)C(=O)[C@H](CCCCC(F)F)N(C)C(=O)[C@@H]2CCN2C(=O)[C@H](C)N(C)C1=O` [Compound 78] ([NMeL]I[NMeA][Aze][NMeNle(6-CHF2)][Sar][hPhe(3-Cl-4-CF3)]P[Ac5c][NMeV][NMeD]-Piperidide; lactam N-11), with 0.0016 µM; and `CC[C@H](C)[C@@H]1NC(=O)[C@H](CC(C)C)N(C)C(=O)C[C@@H](C)N(C)C(=O)[C@H]([C@@H](C)CC)N(C)C(=O)C2(CCCC2)NC(=O)[C@@H]2CCCN2C(=O)[C@H](CCc2ccc(C(F)(F)F)c(Cl)c2)NC(=O)CN(C)C(=O)[C@H](C2CCCC2)N(C)C(=O)[C@@H]2CCN2C(=O)[C@H](C)N(C)C1=O` [Compound 79] (cyclo([Ac5c][NMeI][NMedβ3hAla][NMeL]I[NMeA][Aze][NMeGly(cPent)][Sar][hPhe(3-Cl-4-CF3)]P)), with 0.0093 µM.
